Data as given in the SangsterLogP compilation.

assay: method code SF-AS, from PMID: 6637502; details: pH 5.0

Row | logD | SMILES
1 | 1.63 | O=c1c2c(nc3ccccn13)CCCC2
2 | 1.65 | Cc1ccn2c(=O)c3c(nc2c1)CCC3
3 | 0.79 | Cc1cccn2c(=O)ccnc12
4 | 1.67 | CC1CCn2c(nc3c(c2=O)CCCC3)C1 (configuration not stated)
5 | 1.91 | Cc1cccc2nc3c(c(=O)n12)CCCC3
6 | 2.44 | Cc1cccn2c(=O)c3c(nc12)CCCC3
7 | 0.4 | Cc1cnc2n(c1=O)CCCC2
8 | 0.61 | Cc1ccc2nccc(=O)n2c1
9 | 0.6 | Cc1nc2n(c(=O)c1C)CCCC2
10 | 0.56 | Cc1ccn2c(=O)ccnc2c1
11 | 2.18 | O=c1c2c(nc3n1CCCCC3)CCCCC2
12 | 1.25 | O=c1c2c(nc3n1CCCCC3)CCC2
13 | 0.82 | Cc1cnc2n(c1=O)C(C)CCC2 (configuration not stated)
14 | 1.86 | Cc1ccn2c(=O)c3c(nc2c1)CCCC3
15 | 1.76 | CC1CCCn2c1nc1c(c2=O)CCCC1 (configuration not stated)
16 | 2.07 | Cc1ccc2nc3c(c(=O)n2c1)CCCC3
17 | 1.61 | Cc1ccc2nc3c(c(=O)n2c1)CCC3
18 | 0.22 | O=c1c2c(nc3n1CCC3)CCC2
19 | 1.98 | O=c1c2ccccc2nc2n1CCCCC2
20 | 1.7 | CC1CCc2nc3c(c(=O)n2C1)CCCC3 (configuration not stated)
21 | 1.67 | CC1CCCc2nc3c(c(=O)n21)CCCC3 (configuration not stated)
22 | 1.77 | Cc1cccc2nc3c(c(=O)n12)CCC3
